In patent US7018614B2, “Stabilization of radiopharmaceuticals labeled with 18-F” (Eastern Isotopes, Inc., priority 2002, dated 2006):

Assay: Stability of FDG solution against radiolysis: Radio Chemical Purity (RCP) by TLC after storage
Assay type: physicochemical
Procedure: In all experiments, the RCP was determined using a standard Thin Layer Chromatography (TLC) method using 10 cm silica-coated glass plates supplied by Alltech (Deerfield, Ill.). A 95:5 mixture of acetonitrile and water was used as a mobile phase and a TLC plate scanner supplied by Bioscan (Washington, D.C.) was used to measure the radioactivity distribution on the plate. In most cases, the sample size was less than 1 μl.
[…] It should be noted, however, that most of the radiolysis takes place in the first 3–6 hours due to the fact that the radioactivity concentration decreases exponentially over time with a half-life of 1.82 hours. After 6 hours, only about 10% of the radioactivity remains and is probably not sufficient to cause any significant decomposition of the product.
In this experiment, the final product was prepared with an initial activity concentration of 10.8 GBq/ml (292 mCi/ml). […] Samples were kept in tightly sealed vials identical to those used for storage and delivery of FDG to customers. […]
It was added in an amount calculated to result, after dilution with water, in about a 0.05% concentration in the final product.
Samples 1, 2, and 3, each of 2 ml, were taken from the final product. To see if storage conditions affected the results, samples 1 and 2 were stored in vials while sample 3 was stored in a syringe identical to those that are used to deliver FDG to users. […]

- RCP after decline as a result of radiolysis (over a period of less than 12 hours, high activity concentration): less than 90%
- RCP at the end of production (typical value, end of production): 98–100%
Substance: [^18F] 2-Fluoro-2-Deoxy-D-glucose [FDG]
